Assay results: PubChem BioAssay AID2060627 (Molecular Pharmacology Branch, DTP, NCI, 2025)
Values joined by “and” are separate entries in the source; they are usually repeats but may differ in a detail not shown here. Equal values may be shown once.

Test system: 156681-154-R-J1-PDC complex spheroid viability
Experiment: Anticancer human tumor 156681-154-R-J1-PDC patient-derived melanoma cell line growth inhibition [CLK]
Details: for viability, T/C: stronger effect = lower value
Procedure, shortened: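 Patient-derived tumor cells grown as complex spheroids with HUVEC endothelial cells and mesenchymal stem cells, treated with drug combinations. Concentrations descend in half-log steps from near clinical Cmax, or from 10 microM if Cmax unknown.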

[1] = curve of first compound, second compound 0.0316 µM
[2] = curve of first compound, second compound 0.1 µM
[3] = curve of first compound, second compound 0.316 µM
[4] = curve of first compound, second compound 1 µM
[5] = curve of first compound, second compound 3.16 µM
[6] = curve of first compound, second compound 10 µM
[7] = second compound 0.0316 µM, first compound 0.0316 µM
[8] = second compound 0.0316 µM, first compound 0.1 µM
[9] = second compound 0.0316 µM, first compound 0.316 µM
[10] = second compound 0.0316 µM, first compound 1 µM
[11] = second compound 0.0316 µM, first compound 3.16 µM
[12] = second compound 0.0316 µM, first compound 10 µM
[13] = second compound 0.1 µM, first compound 0.0316 µM
[14] = second compound 0.1 µM, first compound 0.1 µM
[15] = second compound 0.1 µM, first compound 0.316 µM
[16] = second compound 0.1 µM, first compound 1 µM
[17] = second compound 0.1 µM, first compound 3.16 µM
[18] = second compound 0.1 µM, first compound 10 µM
[19] = second compound 0.316 µM, first compound 0.0316 µM
[20] = second compound 0.316 µM, first compound 0.1 µM
[21] = second compound 0.316 µM, first compound 0.316 µM
[22] = second compound 0.316 µM, first compound 1 µM
[23] = second compound 0.316 µM, first compound 3.16 µM
[24] = second compound 0.316 µM, first compound 10 µM
[25] = second compound 1 µM, first compound 0.0316 µM
[26] = second compound 1 µM, first compound 0.1 µM
[27] = second compound 1 µM, first compound 0.316 µM
[28] = second compound 1 µM, first compound 1 µM
[29] = second compound 1 µM, first compound 3.16 µM
[30] = second compound 1 µM, first compound 10 µM
[31] = second compound 3.16 µM, first compound 0.0316 µM
[32] = second compound 3.16 µM, first compound 0.1 µM
[33] = second compound 3.16 µM, first compound 0.316 µM
[34] = second compound 3.16 µM, first compound 1 µM
[35] = second compound 3.16 µM, first compound 3.16 µM
[36] = second compound 3.16 µM, first compound 10 µM
[37] = second compound 10 µM, first compound 0.0316 µM
[38] = second compound 10 µM, first compound 0.1 µM
[39] = second compound 10 µM, first compound 0.316 µM
[40] = second compound 10 µM, first compound 1 µM
[41] = second compound 10 µM, first compound 3.16 µM
[42] = second compound 10 µM, first compound 10 µM
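Further: spheroids exposed to the agents for seven days.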
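Wherever viability, T/C is given: 100% = DMSO vehicle control viability.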

SMILES: NC(=O)C(=Cn1cnc(-c2cc(C(F)(F)F)cc(C(F)(F)F)c2)n1)c1cncnc1 + CNC(=O)c1ccc(Nc2nc(OC3CCCC3)c3c(-c4ccc5nc(C)oc5c4)c[nH]c3n2)c(OC)c1
- IC50 [1]: 61.9 nM
- IC50 [2]: < 9.49 nM
- IC50 [3]: 33.2 nM
- IC50 [4]: < 9.49 nM
- IC50 [5]: < 9.49 nM
- IC50 [6]: < 9.49 nM
- viability, T/C (second compound 0.0316 µM, first compound 0.00949 µM): 64.7%
- viability, T/C (second compound 0.0316 µM, first compound 0.03 µM): 81%
- viability, T/C (second compound 0.0316 µM, first compound 0.0949 µM): 36.6%
- viability, T/C (second compound 0.0316 µM, first compound 0.3 µM): 14%
- viability, T/C (second compound 0.0316 µM, first compound 0.949 µM): 6.14%
- viability, T/C (second compound 0.0316 µM, first compound 3 µM): 3.87%
- viability, T/C (second compound 0.1 µM, first compound 0.00949 µM): 37.9%
- viability, T/C (second compound 0.1 µM, first compound 0.03 µM): 52.5%
- viability, T/C (second compound 0.1 µM, first compound 0.0949 µM): 33%
- viability, T/C (second compound 0.1 µM, first compound 0.3 µM): 18.4%
- viability, T/C (second compound 0.1 µM, first compound 0.949 µM): 6.15%
- viability, T/C (second compound 0.1 µM, first compound 3 µM): 4.5%
- viability, T/C (second compound 0.316 µM, first compound 0.00949 µM): 52.4%
- viability, T/C (second compound 0.316 µM, first compound 0.03 µM): 53.7%
- viability, T/C (second compound 0.316 µM, first compound 0.0949 µM): 23.7%
- viability, T/C (second compound 0.316 µM, first compound 0.3 µM): 7.53%
- viability, T/C (second compound 0.316 µM, first compound 0.949 µM): 3.12%
- viability, T/C (second compound 0.316 µM, first compound 3 µM): 3.35%
- viability, T/C (second compound 1 µM, first compound 0.00949 µM): 40.3%
- viability, T/C (second compound 1 µM, first compound 0.03 µM): 45%
- viability, T/C (second compound 1 µM, first compound 0.0949 µM): 7.8%
- viability, T/C (second compound 1 µM, first compound 0.3 µM): 1.43%
- viability, T/C (second compound 1 µM, first compound 0.949 µM): 1.06%
- viability, T/C (second compound 1 µM, first compound 3 µM): 0.77%
- viability, T/C (second compound 3.16 µM, first compound 0.00949 µM): 37.5%
- viability, T/C (second compound 3.16 µM, first compound 0.03 µM): 22.1%
- viability, T/C (second compound 3.16 µM, first compound 0.0949 µM): 4.21%
- viability, T/C (second compound 3.16 µM, first compound 0.3 µM): 1.37%
- viability, T/C (second compound 3.16 µM, first compound 0.949 µM): 1.03%
- viability, T/C (second compound 3.16 µM, first compound 3 µM): 0.18%
- viability, T/C (second compound 10 µM, first compound 0.00949 µM): 28.5%
- viability, T/C (second compound 10 µM, first compound 0.03 µM): 24.2%
- viability, T/C (second compound 10 µM, first compound 0.0949 µM): 3.92%
- viability, T/C (second compound 10 µM, first compound 0.3 µM): 1%
- viability, T/C (second compound 10 µM, first compound 0.949 µM): 1.5%
- viability, T/C (second compound 10 µM, first compound 3 µM): 0.26%

SMILES: O=c1[nH]cc(F)c(=O)[nH]1 + CN1CCN(c2cc(C(=O)Nc3cc4cc(-c5cnn(C)c5)ccc4cn3)ccn2)CC1
- IC50 [1]: 7520 nM
- IC50 [2]: 4680 nM
- IC50 [3]: < 31.6 nM
- IC50 [4]: < 31.6 nM
- IC50 [5]: < 31.6 nM
- IC50 [6]: < 31.6 nM
- viability, T/C [7]: 106%
- viability, T/C [8]: 104%
- viability, T/C [9]: 96.2%
- viability, T/C [10]: 113%
- viability, T/C [11]: 74.2%
- viability, T/C [12]: 42%
- viability, T/C [13]: 99.3%
- viability, T/C [14]: 77.6%
- viability, T/C [15]: 83.7%
- viability, T/C [16]: 84.6%
- viability, T/C [17]: 57.8%
- viability, T/C [18]: 34.9%
- viability, T/C [19]: 17.3%
- viability, T/C [20]: 21.2%
- viability, T/C [21]: 21.1%
- viability, T/C [22]: 20.9%
- viability, T/C [23]: 20.4%
- viability, T/C [24]: 16.1%
- viability, T/C [25]: 0.17%
- viability, T/C [26]: 1.7%
- viability, T/C [27]: 0.17%
- viability, T/C [28]: 1.14%
- viability, T/C [29]: 3.07%
- viability, T/C [30]: 0.39%
- viability, T/C [31]: 0.09%
- viability, T/C [32]: 3.26%
- viability, T/C [33]: 2.64%
- viability, T/C [34]: 0.08%
- viability, T/C [35]: 3.66%
- viability, T/C [36]: 5.79%
- viability, T/C [37]: 0.09%
- viability, T/C [38]: 1.51%
- viability, T/C [39]: 0.76%
- viability, T/C [40]: 2.73%
- viability, T/C [41]: 1.68%
- viability, T/C [42]: 3.54%

SMILES: COc1cccc2c1C(=O)c1c(O)c3c(c(O)c1C2=O)CC(O)(C(=O)CO)CC3OC1CC(N)C(O)C(C)O1 (stereo not drawn) + CNC(=O)c1ccc(Nc2nc(OC3CCCC3)c3c(-c4ccc5nc(C)oc5c4)c[nH]c3n2)c(OC)c1
- IC50 [1]: < 31.6 nM
- IC50 [2]: < 31.6 nM
- IC50 [3]: < 31.6 nM
- IC50 [4]: < 31.6 nM
- IC50 [5]: < 31.6 nM
- IC50 [6]: < 31.6 nM
- viability, T/C [7]: 28.9%
- viability, T/C [8]: 20.6%
- viability, T/C [9]: 2.62%
- viability, T/C [10]: 0.17%
- viability, T/C [11]: 0.29%
- viability, T/C [12]: 2.75%
- viability, T/C [13]: 27.2%
- viability, T/C [14]: 20%
- viability, T/C [15]: 3.42%
- viability, T/C [16]: 0.17%
- viability, T/C [17]: 0.11%
- viability, T/C [18]: 0.1%
- viability, T/C [19]: 30.7%
- viability, T/C [20]: 18.2%
- viability, T/C [21]: 2.21%
- viability, T/C [22]: 0.13%
- viability, T/C [23]: 0.1%
- viability, T/C [24]: 0.32%
- viability, T/C [25]: 18.9%
- viability, T/C [26]: 9.29%
- viability, T/C [27]: 1.41%
- viability, T/C [28]: 0.1%
- viability, T/C [29]: 1.2%
- viability, T/C [30]: 1.16%
- viability, T/C [31]: 17.6%
- viability, T/C [32]: 6.96%
- viability, T/C [33]: 0.58%
- viability, T/C [34]: 0.12%
- viability, T/C [35]: 0.1%
- viability, T/C [36]: 0.08%
- viability, T/C [37]: 16.3%
- viability, T/C [38]: 6.19%
- viability, T/C [39]: 2.01%
- viability, T/C [40]: 0.71%
- viability, T/C [41]: 0.12%
- viability, T/C [42]: 0.11%

SMILES: CC(CO)NC(=O)c1cc(-c2ccc(Cl)cc2)nn(-c2cnn(C)c2)c1=O (stereo not drawn)
- viability, T/C (compound 0.0316 µM): 97.5% and 93.1%
- viability, T/C (compound 0.1 µM): 73.8% and 82.1%
- viability, T/C (compound 0.316 µM): 100% and 94.2%
- viability, T/C (compound 1 µM): 94.3% and 99.3%
- viability, T/C (compound 3.16 µM): 87.3% and 77.8%
- viability, T/C (compound 10 µM): 51.8% and 58.1%
- IC50 (curve of compound): > 10000 nM
